Consider 33 molecules from patent US20110237538A1, “TREATMENT OF LYSOSOMAL STORAGE DISORDERS AND OTHER PROTEOSTATIC DISEASES” (SUMMIT CORPORATION PLC, priority 2008, published 2011).

The inhibition is the share of the control response that was lost under treatment. Higher therefore signals a response far below the control.

Assay [1] addresses T1, wild type (wt) beta-glucocerebrosidase (Homo sapiens, UniProt P04062).
T1 construct: The lysates were used as a source for wild type (wt) beta-glucocerebrosidase; endogenous in cells; host or cells: HL60 (ECACC No. 98070106) lysate
T1 sequence (P04062 40-536): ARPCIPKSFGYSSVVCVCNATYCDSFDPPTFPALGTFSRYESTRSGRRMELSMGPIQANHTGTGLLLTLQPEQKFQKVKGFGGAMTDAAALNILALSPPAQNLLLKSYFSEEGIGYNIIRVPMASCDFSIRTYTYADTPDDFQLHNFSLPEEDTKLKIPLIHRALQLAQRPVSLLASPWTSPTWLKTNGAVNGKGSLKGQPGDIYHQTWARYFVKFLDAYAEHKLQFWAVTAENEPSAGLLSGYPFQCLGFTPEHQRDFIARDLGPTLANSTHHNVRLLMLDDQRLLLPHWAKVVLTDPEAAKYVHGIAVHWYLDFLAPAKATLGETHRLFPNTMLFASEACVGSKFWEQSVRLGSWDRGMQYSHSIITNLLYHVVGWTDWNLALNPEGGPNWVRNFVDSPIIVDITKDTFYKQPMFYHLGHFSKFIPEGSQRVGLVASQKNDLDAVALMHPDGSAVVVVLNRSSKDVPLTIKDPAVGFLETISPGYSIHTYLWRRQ
Briefly: beta-glucocerebrosidase activity assay in HL60 lysate (4MU-β-D-glc).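 Note: fluorometric read-out of 4MU liberated from the substrate (ex 360 nm, em 450 nm) after 37 °C incubation, reaction stopped with sodium carbonate.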 Format: biochemical. To be noted: at a concentration of 100 μM, 0.5 mM 4MU-β-D-glc.

Assay [2] addresses T2, wild type (wt) lysosomal alpha-glucosidase (Homo sapiens, UniProt P10253).
T2 construct: The lysates were used as a source for wild type (wt) lysosomal alpha-glucosidase; endogenous in cells; host or cells: HL60 (ECACC No. 98070106) lysate
Briefly: alpha-glucosidase activity assay in HL60 lysate (4MU-α-D-glc).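 Note: fluorometric rate of 4MU product release read at 360 nm excitation and 450 nm emission, reactions run at 37 °C in citric phosphate buffer.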 Format: biochemical. To be noted: at a concentration of 100 uM, 0.5 mM 4MU-α-D-glc, pH 4.5.

Turning to `CN1C[C@H](O)[C@@H](O)[C@H](O)[C@H]1CO` [Compound 3, (2R,3R,4R,5S)-2-(hydroxymethyl)-1-methylpiperidine-3,4,5-triol], the inhibition at 100 µM in assay [1] and in assay [2] was over 50% in each case.

Take `OC[C@@H]1[C@@H](O)[C@H](O)[C@@H]2[C@@H](O)CCN21` [Compound 17, (1R,2R,3R,7S,7aS)-3-(hydroxymethyl)hexahydro-1H-pyrrolizine-1,2,7-triol]: in assay [1], the inhibition at 100 µM is over 50%. On to `O=C(NC[C@H]1[C@@H](O)[C@@H](O)CN1Cc1ccc(-c2ccccc2)cc1)c1ccc(-c2ccccc2)cc1` [Compound 701, N-(((2S,3R,4S)-1-(biphenyl-4-ylmethyl)-3,4-dihydroxypyrrolidin-2-yl)methyl)biphenyl-4-carboxamide], for which the inhibition at 100 µM in assay [1] is over 50%. In turn, `O=C(CCCCO)CCCCCCC[C@@H](O)[C@H]1N[C@H](CO)[C@@H](O)[C@@H]1O` [Compound 226, (R)-13-((2R,3R,4R,5R)-3,4-dihydroxy-5-(hydroxymethyl)pyrrolidin-2-yl)-1,13-dihydroxytridecan-5-one] gave an inhibition at 100 µM in assay [1] of over 50%. The same measure, in the same setting: next, `OC[C@H]1[C@@H](O)[C@H](O)CN1CC1CCCCC1` [Compound 320, (2S,3R,4R)-1-(cyclohexylmethyl)-2-(hydroxymethyl)pyrrolidine-3,4-diol]: over 50%. The same measure, in the same setting: the same measure for `OC[C@@H]1[C@@H](O)[C@H](O)CN1CCCOc1ccccc1` [Compound 349, (2R,3R,4R)-2-(hydroxymethyl)-1-(3-phenoxypropyl)pyrrolidine-3,4-diol]: over 50%.

As for `OC[C@@H]1[C@@H](O)[C@H](O)[C@@H](O)CN1CCCOc1ccccc1` [Compound 288, (2R,3R,4R,5S)-2-(hydroxymethyl)-1-(3-phenoxypropyl)piperidine-3,4,5-triol], the inhibition at 100 µM in assay [1] and in assay [2] was over 50% each time. `OC[C@@H]1NC[C@H](O)[C@H]1O` [Compound 160, (2S,3S,4S)-2-(hydroxymethyl)pyrrolidine-3,4-diol]: the inhibition at 100 µM in assay [1] and in assay [2] was over 50% in each case. Turning to `O=C(O)CN1C[C@H](CO)[C@@H](O)[C@H](O)C1` [Compound 450, 2-((3R,4R,5R)-3,4-dihydroxy-5-(hydroxymethyl)piperidin-1-yl)acetic acid], the inhibition at 100 µM in assay [1] was over 50%.

`CCCCCCCCCN1C[C@@H](O)[C@H](O)[C@H]1CO` [Compound 568, (2R,3R,4R)-2-(hydroxymethyl)-1-nonylpyrrolidine-3,4-diol] returned an inhibition at 100 µM in assay [1] of over 50%. Same read-out and setting: next, `O=C(NC[C@@H]1[C@@H](O)[C@@H](O)CN1Cc1ccc(-c2ccccc2)cc1)c1ccccc1` [Compound 649, N-(((2R,3R,4S)-1-(biphenyl-4-ylmethyl)-3,4-dihydroxypyrrolidin-2-yl)methyl)benzamide]: over 50%; `OCC1OC(O[C@@H]2[C@@H](O)[C@H](O)[C@]3(O)CC[C@H]2N3)C(O)C(O)C1O` (stereo partly drawn) [Compound 105, (1R,2S,3S,4S,5R)-4-(3,4,5-trihydroxy-6-(hydroxymethyl)tetrahydro-2H-pyran-2-yloxy)-8-azabicyclo[3.2.1]octane-1,2,3-triol]: over 50%. On the same count and under the same terms, next, `OCC1OC(CO)(O[C@H]2[C@H](O)[C@H](O)[C@H](CO)N[C@@H]2CO)C(O)C1O` (stereo partly drawn) [Compound 77, (2S,3R,4R,5R,6R)-5-(3,4-dihydroxy-2,5-bis(hydroxymethyl)tetrahydrofuran-2-yloxy)-2,6-bis(hydroxymethyl)piperidine-3,4-diol]: over 50%; `OC[C@H]1CNC[C@@H](O)[C@@H]1O` [Compound 279, (3R,4R,5R)-5-(Hydroxymethyl)-3,4-piperidinediol]: over 50%. As to `OC[C@@H]1[C@@H](O)[C@H](O)[C@@H](CO)N1CCOCc1ccccc1` [Compound 556, (2R,3R,4R,5R)-1-(2-(benzyloxy)ethyl)-2,5-bis(hydroxymethyl)pyrrolidine-3,4-diol], the inhibition at 100 µM in assay [1] and in assay [2] was over 50% throughout. With `OC[C@@H]1[C@@H](O)[C@H](O)[C@@H](O)CN1Cc1ccc(-c2ccccc2)cc1` [Compound 524, (2R,3R,4R,5S)-1-(biphenyl-4-ylmethyl)-2-(hydroxymethyl)piperidine-3,4,5-triol], the inhibition at 100 µM in assay [1] and in assay [2] was over 50% throughout.

`O[C@H]1[C@H](O)[C@H](O)CN(CCCCCOCC23CC4CC(CC(C4)C2)C3)C[C@H]1O` [Compound 766, (3R,4R,5R,6R)-1-(5-(adamantan-1-yl-methoxy)-pentyl)azepane-3,4,5,6-tetraol] registered an inhibition at 100 µM in assay [1] of over 50%. Still for that read-out and setting: next, `OC[C@@H]1CNC[C@@H](O)[C@H]1O` [Compound 219, (3R,4S,5S)-5-(hydroxymethyl)piperidine-3,4-diol]: over 50%; `OC[C@@H]1CNC[C@H](O)[C@H]1O` [Compound 641, (3S,4S,5S)-5-(hydroxymethyl)piperidine-3,4-diol]: over 50%. Still for that read-out and setting: the same measure for `CCCCNC(=O)C1N[C@@H](C)[C@H](O)[C@@H](O)[C@H]1O` (stereo partly drawn) [Compound 265, (3S,4R,5S,6S)-N-butyl-3,4,5-trihydroxy-6-methylpiperidine-2-carboxamide]: over 50%; for `OC1C[C@@]2(O)N[C@@H]1C[C@H](O)[C@H]2O` (stereo partly drawn) [Compound 43, (1S,2R,3S,5R)-8-azabicyclo[3.2.1]octane-1,2,3,6-tetraol]: over 50%. The same measure, in the same setting: next, `CCCCN1C[C@H](CO)[C@@H](O)[C@H](O)C1` [Compound 419, (3R,4R,5R)-1-butyl-5-(hydroxymethyl)piperidine-3,4-diol]: over 50%. Regarding `OCCCCCCCCCN1C[C@H](O)[C@@H](O)[C@H](O)[C@H]1CO` [Compound 724, (2R,3R,4R,5S)-2-(hydroxymethyl)-1-(9-hydroxynonyl)piperidine-3,4,5-triol], the inhibition at 100 µM in assay [1] and in assay [2] was over 50% each time. In turn, `OCCN1C[C@H](CO)[C@@H](O)[C@H](O)C1` [Compound 420, (3R,4R,5R)-1-(2-hydroxyethyl)-5-(hydroxymethyl)piperidine-3,4-diol] displayed an inhibition at 100 µM in assay [1] of over 50%. In assay [1], `NC[C@H]1[C@@H](O)[C@@H](O)CN1Cc1ccc(-c2ccccc2)cc1` [Compound 686, (2S,3R,4S)-2-(aminomethyl)-1-(biphenyl-4-ylmethyl)pyrrolidine-3,4-diol] had an inhibition at 100 µM of over 50%. Still for that read-out and setting: next, `C[C@@H]1NC(C(=O)NCc2ccccc2)[C@H](O)[C@H](O)[C@H]1O` (stereo partly drawn) [Compound 267, (3S,4R,5S,6S)-N-benzyl-3,4,5-trihydroxy-6-methylpiperidine-2-carboxamide]: over 50%. The same measure, in the same setting: next, `C[C@@H]1CCC[C@@H]2[C@@H](O)[C@@H](O)[C@@H](CO)N12` [Compound 60, (1R,2S,3R,5R,8aR)-3-(hydroxymethyl)-5-methyloctahydroindolizine-1,2-diol]: over 50%; `CCCCCCCCCN1[C@H](CO)[C@@H](O)[C@H](O)[C@H]1CO` [Compound 555, (2R,3R,4R,5R)-2,5-bis(hydroxymethyl)-1-nonylpyrrolidine-3,4-diol]: over 50%. As to `OC[C@@H]1[C@@H](O)[C@H](O)[C@@H](CO)N1CCCOc1ccccc1` [Compound 343, (2R,3R,4R,5R)-2,5-bis(hydroxymethyl)-1-(3-phenoxypropyl)pyrrolidine-3,4-diol], the inhibition at 100 µM in assay [1] and in assay [2] was over 50% each time. In the case of `O[C@H]1[C@H](O)[C@@H](O)CN2CC[C@H](O)[C@H]12` [Compound 104, (1S,6S,7R,8R,8aR)-octahydroindolizine-1,6,7,8-tetraol], the inhibition at 100 µM in assay [1] and in assay [2] was over 50% each time. In assay [1], `O=C(O)CN1C[C@@H](CO)[C@H](O)[C@@H](O)C1` [Compound 451, 2-((3S,4S,5S)-3,4-dihydroxy-5-(hydroxymethyl)piperidin-1-yl)acetic acid] yielded an inhibition at 100 µM of over 50%. Still for that read-out and setting: the same measure for `O[C@@H]1[C@@H](O)[C@H](O)[C@]2(O)C[C@@H](O)[C@H]1N2` [Compound 33, (1R,2S,3R,4S,5R,6R)-8-azabicyclo[3.2.1]octane-1,2,3,4,6-pentaol]: over 50%; for `CC(O)CC[C@@H]1[C@@H](O)C[C@@H]2[C@H](O)[C@H](O)[C@@H](CO)N21` (stereo partly drawn) [Compound 66, (1S,2R,3R,5R,6S,7aR)-5-(3-hydroxybutyl)-3-(hydroxymethyl)hexahydro-1H-pyrrolizine-1,2,6-triol]: over 50%.
